Results from patent publication US4585755A, “Cyclic and bridged cyclic somatostatin analogs useful as local anti-inflammatory agents” (Merck & Co., Inc., priority 1985, dated 1986).
Residues, ends and D or L forms follow the SMILES beside them.

Key:
[1] = tested on: growth hormone, insulin and glucogen secretion; experiment: Potency relative to somatostatin (SRIF), based on inhibition of hormone secretion; settings: somatostatin (SRIF) potency assigned a value of 1, based upon inhibition of growth hormone
Procedure: Following the same procedure as described above for Assay 1, additional compounds were tested for local; i.e., topical, anti-inflammatory activity. […] In Table III, the potency of each compound tested relative to that of somatostatin is also shown, the somatostatin (SRIF) potency being assigned a value of 1 and based upon its inhibition of growth hormone, insulin and glucogen secretion.

[2] = tested on: cellular proliferation (granuloma); experiment: Assay 1: pellet granuloma assay, compound applied locally to implanted pellets; type: in vivo, rats (Charles River-CD); settings: for Body Wt. Change / Net weight of Pellets: local on pellet, male rats, 7 days; for Net weight of Pellets: ± S.E. of mean, control 39 ± 2.7
Procedure: The assay method employed to test the Formula I, II and III compounds as local anti-inflammatory agents is a modification of the method described by S. L. Steelman, et al. [Steroids, 1, 163 (1963)] as follows:
(§1) Male rats (Charles River-CD) of about 150-160 grams in weight were subcutaneously implanted in the abdominal area with two pellets each. Five animals were used per group. The pellets used were preweighed and all used in a given assay were ±1 mg from one another. The compounds were dissolved in absolute ethanol and the indicated dose applied to each pellet in 0.2 ml. The alcohol was removed in vacuo overnight. Just prior to implantation, each pellet was moistened with 0.2 ml of 0.9% saline containing 1 mg each of penicillin and streptomycin. After seven days, the pellets were dissected out together with adhering granulomatous tissue. After drying in a vacuum oven overnight at 60°-65° C., the pellets were weighed. The difference in weight between the original pellet weight and the implanted pellet weight was used as a measure of cellular proliferation (granuloma). The lower the net weight, the more anti-inflammatory activity.
The results obtained following the Assay Method described above are shown below in Table I wherein hydrocortisone was used as a positive control.

[3] = tested on: cellular proliferation (granuloma); experiment: Assay 2: pellet granuloma assay, compounds administered subcutaneously as saline injections; type: in vivo, rats (Charles River-CD); settings: for Avg. Granuloma wt. / Avg. Adrenal wt. / Avg. Thymus wt. / Avg. body wt change: rats, 7 days, ± S.E. of mean; for Avg. Granuloma wt.: control 28 ± 3; for Avg. Adrenal wt.: control 44 ± 1; for Avg. Thymus wt.: control 552 ± 45; for Avg. body wt change: control +35 ± 2
Procedure: as §1
Following the procedure described above for Assay 1, additional tests were conducted except that the compounds were administered subcutaneously as saline injections. The tests were carried out on six animals per group and the results obtained are shown below in Table II.

[4] = daily dose 200 mcg subcutaneous

SMILES: C[C@@H]1NC(=O)[C@H](CO)NC(=O)[C@H](CCCCN)NC(=O)[C@@H](Cc2c[nH]c3ccccc23)NC(=O)[C@H](Cc2c[nH]cn2)NC(=O)[C@H](Cc2ccccc2)N(C)C1=O [11/I, Cyclo-(Ser-Ala-N-Me-Phe-His-D-Trp-Lys)] (HELM PEPTIDE1{A.[meF].H.[dW].K.S}$PEPTIDE1,PEPTIDE1,1:R1-6:R2$$$V2.0)
- Potency Relative to Samatostatin (SRIF) [1]: 200

SMILES: C[C@@H](O)[C@@H]1NC(=O)[C@H](CCCCN)NC(=O)[C@@H](Cc2c[nH]c3ccccc23)NC(=O)[C@H](Cc2ccccc2)NC(=O)[C@@H]2CCCN2C(=O)[C@H](Cc2ccccc2)NC1=O [13/II, Cyclo-(Pro-Phe-D-Trp-Lys-Thr-Phe)] (HELM PEPTIDE1{P.F.[dW].K.T.F}$PEPTIDE1,PEPTIDE1,1:R1-6:R2$$$V2.0)
- Potency Relative to Samatostatin (SRIF) [1]: 6

SMILES: CC(C)[C@@H]1NC(=O)[C@H](CCCCN)NC(=O)[C@H](Cc2c[nH]c3ccccc23)NC(=O)[C@H](Cc2ccc(O)cc2)NC(=O)[C@H](C)N(C)C(=O)[C@H](Cc2ccccc2)NC1=O [10/I, Cyclo-(N-Me-Ala-Tyr-L-Trp-Lys-Val-Phe)]
- Potency Relative to Samatostatin (SRIF) [1]: 50

SMILES: CC(C)[C@@H]1NC(=O)[C@H](CCCCN)NC(=O)[C@@H](Cc2c[nH]c3ccccc23)NC(=O)[C@H](Cc2ccc(O)cc2)NC(=O)[C@H](C)N(C)C(=O)[C@H](Cc2ccccc2)NC1=O [Compound 8 of Formula I, Cyclo-(N-Me-Ala-Tyr-D-Trp-Lys-Val-Phe)]
- Body Wt. Change ([2]; 10 mcg./pellet): +43 gm
- Net weight of Pellets ([2]; 10 mcg./pellet): 39 ± 2.9 mg
- Body Wt. Change ([2]; 100 mcg./pellet): +40 gm
- Net weight of Pellets ([2]; 100 mcg./pellet): 30 ± 2.4 mg
- anti-inflammatory activity (in words) ([2]; administered locally, i.e., topically): clearly exhibits anti-inflammatory activity
- local anti-inflammatory activity (in words) ([2]; doses of 100-200 micrograms per pellet): significant activity
- effect on adrenal weight (in words) ([3]; administered subcutaneously): slight decrease in the adrenal weight
- anti-inflammatory activity (in words) ([3]; administered subcutaneously at a total dose of 1.4 mg (0.2 mg×7)): no anti-inflammatory activity
- anti-inflammatory activity (in words) ([3]; administered systematically, i.e., subcutaneously): no anti-inflammatory activity
- Avg. Granuloma wt. ([3]; daily dose 50 mcg subcutaneous): 27 ± 3 mg
- Avg. Adrenal wt. ([3]; daily dose 50 mcg subcutaneous): 43 ± 2 mg
- Avg. Thymus wt. ([3]; daily dose 50 mcg subcutaneous): 576 ± 14 mg
- Avg. body wt change ([3]; daily dose 50 mcg subcutaneous): +38 ± 3 gm
- Avg. Granuloma wt. [3, 4]: 29 ± 2 mg
- Avg. Adrenal wt. [3, 4]: 36 ± 2 mg
- Avg. Thymus wt. [3, 4]: 571 ± 26 mg
- Avg. body wt change [3, 4]: +35 ± 2 gm
- Potency Relative to Samatostatin (SRIF) [1]: 50-100

SMILES: CC(C)[C@@H]1NC(=O)[C@H](CCCCN)NC(=O)[C@@H](Cc2c[nH]c3ccccc23)NC(=O)[C@H](Cc2ccc(O)cc2)NC(=O)[C@H](C)N(C)C(=O)[C@H](Cc2c[nH]c3ccccc23)NC1=O [9/I, Cyclo-(N-Me-Ala-Tyr-D-Trp-Lys-Val-Trp)] (HELM PEPTIDE1{K.V.W.[meA].Y.[dW]}$PEPTIDE1,PEPTIDE1,1:R1-6:R2$$$V2.0)
- Potency Relative to Samatostatin (SRIF) [1]: 20-35

SMILES: C[C@]12CCC(=O)C=C1CC[C@@H]1[C@@H]2[C@@H](O)C[C@@]2(C)[C@H]1CC[C@]2(O)C(=O)CO [Hydrocortisone, reference compound]
- Body Wt. Change ([2]; 200 mcg./pellet): +44 gm
- Net weight of Pellets ([2]; 200 mcg./pellet): 34 ± 2.5 mg
- Body Wt. Change ([2]; 1000 mcg./pellet): +41 gm
- Net weight of Pellets ([2]; 1000 mcg./pellet): 29 ± 2.1 mg
- activity of positive control (in words) ([3]; administered subcutaneously): typical activity
- Avg. Granuloma wt. ([3]; daily dose 1.0 mg subcutaneous): 22 ± 1 mg
- Avg. Adrenal wt. ([3]; daily dose 1.0 mg subcutaneous): 36 ± 3 mg
- Avg. Thymus wt. ([3]; daily dose 1.0 mg subcutaneous): 201 ± 20 mg
- Avg. body wt change ([3]; daily dose 1.0 mg subcutaneous): +22 ± 3 gm
- Avg. Granuloma wt. ([3]; daily dose 4.0 mg subcutaneous): 19 ± 1 mg
- Avg. Adrenal wt. ([3]; daily dose 4.0 mg subcutaneous): 23 ± 1 mg
- Avg. Thymus wt. ([3]; daily dose 4.0 mg subcutaneous): 41 ± 3 mg
- Avg. body wt change ([3]; daily dose 4.0 mg subcutaneous): -17 ± 2 gm
